According to ChEMBL document CHEMBL1201862, “PubChem BioAssay data set” (2004):
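Test compounds were applied to cells in 96-well plates for 48 hours at 5 doses. Here, GI50 denotes the concentration required for 50% inhibition of growth.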 Activity calls are given as the source filed them. Rule as the data show it: active = GI50 up to about 1.1 µM and inactive = higher.

Key:
Test in all cases: NCI anticancer screen, dose series, 48 h
[1] = system: NCI-H23
[2] = system: Hs-578T
[3] = system: T47D
[4] = system: MDA-N
[5] = system: TK-10
[6] = system: A498
[7] = system: NCI-H460
[8] = system: OVCAR-4
[9] = system: OVCAR-8
[10] = system: LOX IMVI
[11] = system: MDA-MB-231
[12] = system: MOLT-4
[13] = system: NCI-H522
[14] = system: OVCAR-3
[15] = system: COLO 205
[16] = system: UACC-62

Row | Compound | GI50 [1] | GI50 [2] | GI50 [3] | GI50 [4] | GI50 [5] | GI50 [6] | GI50 [7] | GI50 [8] | GI50 [9] | GI50 [10] | GI50 [11] | GI50 [12] | GI50 [13] | GI50 [14] | GI50 [15] | GI50 [16]
1 | O=C1c2cc3c(cc2CC12Cc1ccc4c(c1C2=O)CCC4)CCC3 (stereo not given) | > 100 µM (inactive) | > 100 µM (inactive) | > 100 µM (inactive) | > 100 µM (inactive) | > 100 µM (inactive) | > 100 µM (inactive) | > 100 µM (inactive) | 50.6 µM (inactive) | > 100 µM (inactive) | > 100 µM (inactive) | > 100 µM (inactive) | > 100 µM (inactive) | > 100 µM (inactive) | 75.5 µM (inactive) | – | –
2 | O=S(=O)(O)c1ccc2c(/N=N/c3ccc(Sc4ccc(/N=N/c5c(O)ccc6cc(S(=O)(=O)O)ccc56)cc4)cc3)c(O)ccc2c1 | > 100 µM (inactive) | > 100 µM (inactive) | > 100 µM (inactive) | > 100 µM (inactive) | > 100 µM (inactive) | – | > 100 µM (inactive) | > 100 µM (inactive) | > 100 µM (inactive) | – | > 100 µM (inactive) | > 100 µM (inactive) | > 100 µM (inactive) | > 100 µM (inactive) | > 100 µM (inactive) | > 100 µM (inactive)
3 | c1ccc2c(c1)[nH]c1c2cc[n+]2cc3c(cc12)CCCC3 | 2.24 µM (inactive) | 3.87 µM (inactive) | 1.66 µM (inactive) | 1.57 µM (inactive) | 6.68 µM (inactive) | 5.38 µM (inactive) | 1.34 µM (inactive) | 1.72 µM (inactive) | 2.42 µM (inactive) | 2.39 µM (inactive) | 2 µM (inactive) | 1.18 µM (inactive) | 1.79 µM (inactive) | 1.16 µM (inactive) | 0.38 µM (active) | –
4 | NC(CCCCCP(=O)(c1ccccc1)C1C=CC=CC1)C(=O)O (stereo not given) | > 100 µM (inactive) | > 100 µM (inactive) | 57.8 µM (inactive) | > 100 µM (inactive) | > 100 µM (inactive) | – | > 100 µM (inactive) | > 100 µM (inactive) | > 100 µM (inactive) | > 100 µM (inactive) | > 100 µM (inactive) | > 100 µM (inactive) | > 100 µM (inactive) | > 100 µM (inactive) | > 100 µM (inactive) | 51.2 µM (inactive)
5 | CCOC(=O)c1sc2nc(SC)nc3c2c1NCN3C | 22 µM (inactive) | 20.1 µM (inactive) | 6.79 µM (inactive) | > 100 µM (inactive) | 25 µM (inactive) | 15.2 µM (inactive) | 32.1 µM (inactive) | 20.4 µM (inactive) | 10.7 µM (inactive) | 36 µM (inactive) | 28.1 µM (inactive) | – | – | > 100 µM (inactive) | > 100 µM (inactive) | 42.7 µM (inactive)
6 | CSc1c(C#N)c(=O)n(N)c2[nH]nc(C)c12 | > 100 µM (inactive) | > 100 µM (inactive) | > 100 µM (inactive) | > 100 µM (inactive) | > 100 µM (inactive) | 91.6 µM (inactive) | > 100 µM (inactive) | > 100 µM (inactive) | > 100 µM (inactive) | > 100 µM (inactive) | > 100 µM (inactive) | > 100 µM (inactive) | > 100 µM (inactive) | – | > 100 µM (inactive) | > 100 µM (inactive)
7 | CCc1nc(N)c2nc(-c3ccc(C#N)cc3)oc2n1 | > 100 µM (inactive) | > 100 µM (inactive) | > 100 µM (inactive) | > 100 µM (inactive) | > 100 µM (inactive) | > 100 µM (inactive) | > 100 µM (inactive) | – | > 100 µM (inactive) | > 100 µM (inactive) | > 100 µM (inactive) | > 100 µM (inactive) | > 100 µM (inactive) | > 100 µM (inactive) | > 100 µM (inactive) | > 100 µM (inactive)
8 | O=C(O)CC(O)(C(=O)O)C(O)C(=O)O (stereo not given) | > 1000 µM (inactive) | 119 µM (inactive) | > 1000 µM (inactive) | 617 µM (inactive) | > 1000 µM (inactive) | – | > 1000 µM (inactive) | > 1000 µM (inactive) | > 1000 µM (inactive) | 440 µM (inactive) | > 1000 µM (inactive) | > 1000 µM (inactive) | > 1000 µM (inactive) | > 1000 µM (inactive) | > 1000 µM (inactive) | 933 µM (inactive)
9 | COc1ccc(-c2c(C(C)=O)c(C)n(C3OC(CO)C(O)C(O)C3O)c(=S)c2C#N)cc1 (stereo not given) | 68.1 µM (inactive) | 98.2 µM (inactive) | 34.6 µM (inactive) | 71.6 µM (inactive) | > 100 µM (inactive) | – | > 100 µM (inactive) | 95.5 µM (inactive) | 58.2 µM (inactive) | 45.5 µM (inactive) | > 100 µM (inactive) | 27.7 µM (inactive) | – | > 100 µM (inactive) | > 100 µM (inactive) | 28 µM (inactive)
10 | CCOC(=O)C(Cl)(NC(=O)OCc1ccccc1)C(F)(F)F (stereo not given) | > 100 µM (inactive) | > 100 µM (inactive) | > 100 µM (inactive) | > 100 µM (inactive) | > 100 µM (inactive) | > 100 µM (inactive) | – | > 100 µM (inactive) | > 100 µM (inactive) | > 100 µM (inactive) | > 100 µM (inactive) | > 100 µM (inactive) | > 100 µM (inactive) | > 100 µM (inactive) | > 100 µM (inactive) | –
